# Results as given in publication PMC11062906 (Nature, 2024).
# “And” between values parts separate entries of the source, which are not always exact repeats. Identical values can stand only once. “Also recorded” adds a separate entry of the source.
# What was measured:
# [1] = molecular target: BmGr9 Y332A (Bombyx mori, UniProt B3GTD7, Y332A); assay: GCaMP calcium flux assay, BmGr9 Y332A; type: cell-based
# [2] = molecular target: BmGr9 H358A (Bombyx mori, UniProt B3GTD7, H358A); assay: GCaMP calcium flux assay, BmGr9 H358A; type: cell-based
# Sequence of BmGr9 H358A (B3GTD7 entry or part of it H358A): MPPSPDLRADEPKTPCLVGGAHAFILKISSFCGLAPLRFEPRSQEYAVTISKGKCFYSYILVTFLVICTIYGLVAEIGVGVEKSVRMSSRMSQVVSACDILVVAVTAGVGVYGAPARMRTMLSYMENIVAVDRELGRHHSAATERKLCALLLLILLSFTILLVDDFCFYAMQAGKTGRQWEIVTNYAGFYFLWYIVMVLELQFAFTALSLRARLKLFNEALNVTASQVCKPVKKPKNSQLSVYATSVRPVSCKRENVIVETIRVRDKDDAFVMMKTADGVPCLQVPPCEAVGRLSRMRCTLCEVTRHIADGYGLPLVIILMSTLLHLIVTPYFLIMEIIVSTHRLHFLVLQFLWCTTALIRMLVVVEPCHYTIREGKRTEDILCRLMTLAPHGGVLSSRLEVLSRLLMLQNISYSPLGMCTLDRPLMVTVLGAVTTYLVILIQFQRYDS
# [3] = molecular target: BmGr9 Q351N (Bombyx mori, UniProt B3GTD7, Q351N); assay: GCaMP calcium flux assay, BmGr9 Q351N; type: cell-based
# Sequence of BmGr9 Q351N (B3GTD7 entry or part of it Q351N): as the sequence (B3GTD7 entry or part of it H358A) above, with Q351N, A358H counted along it
# [4] = test system: BmGr9 Q445R; assay: GCaMP calcium flux assay, BmGr9 Q445R; type: cell-based, Bombyx mori
# [5] = test system: BmGr9 F333L; assay: GCaMP calcium flux assay, BmGr9 F333L; type: cell-based, Bombyx mori
# [6] = test system: BmGr9 F333A; assay: GCaMP calcium flux assay, BmGr9 F333A; type: cell-based, Bombyx mori
# [7] = molecular target: T1, BmGr9 (Bombyx mori, UniProt B3GTD7); assay: Cell-based GCaMP calcium flux assay, wild-type BmGr9
# T1 sequence (B3GTD7 entry or part of it): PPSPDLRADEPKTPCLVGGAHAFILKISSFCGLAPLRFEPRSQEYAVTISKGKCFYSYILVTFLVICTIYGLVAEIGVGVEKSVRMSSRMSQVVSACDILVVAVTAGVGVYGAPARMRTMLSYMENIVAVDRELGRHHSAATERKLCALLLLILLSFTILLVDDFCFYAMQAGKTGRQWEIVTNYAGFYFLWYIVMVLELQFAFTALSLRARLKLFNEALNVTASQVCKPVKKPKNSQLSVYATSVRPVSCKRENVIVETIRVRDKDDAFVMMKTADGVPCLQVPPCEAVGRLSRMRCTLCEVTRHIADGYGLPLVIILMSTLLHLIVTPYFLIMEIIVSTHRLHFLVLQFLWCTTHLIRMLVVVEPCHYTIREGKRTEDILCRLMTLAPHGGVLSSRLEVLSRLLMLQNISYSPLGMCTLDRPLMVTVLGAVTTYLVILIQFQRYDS
# [8] = test system: BmGr9 D165E; assay: GCaMP calcium flux assay, BmGr9 D165E; type: cell-based, Bombyx mori
# [9] = test system: BmGr9 Q443A; assay: GCaMP calcium flux assay, BmGr9 Q443A; type: cell-based, Bombyx mori
# [10] = test system: BmGr9 D165A; assay: GCaMP calcium flux assay, BmGr9 D165A; type: cell-based, Bombyx mori
# [11] = molecular target: BmGr9 Y332F (Bombyx mori, UniProt B3GTD7, Y332F); assay: GCaMP calcium flux assay, BmGr9 Y332F; type: cell-based
# Sequence of BmGr9 Y332F (B3GTD7 entry or part of it Y332F): as the sequence (B3GTD7 entry or part of it H358A) above, with Y332F, A358H counted along it
# [12] = molecular target: BmGr9 Q443D_Q445K (Bombyx mori, UniProt B3GTD7, Q443D/Q445K); assay: GCaMP calcium flux assay, BmGr9 Q443D_Q445K; type: cell-based
# Sequence of BmGr9 Q443D_Q445K (B3GTD7 entry or part of it Q443D/Q445K): as the sequence (B3GTD7 entry or part of it H358A) above, with A358H, Q443D, Q445K counted along it
# [13] = test system: BmGr9 Y190A; assay: GCaMP calcium flux assay, BmGr9 Y190A; type: cell-based, Bombyx mori
# [14] = test system: BmGr9 R86A; assay: GCaMP calcium flux assay, BmGr9 R86A; type: cell-based, Bombyx mori
# [15] = test system: BmGr9 Q445K; assay: GCaMP calcium flux assay, BmGr9 Q445K; type: cell-based, Bombyx mori
# [16] = test system: BmGr9 I440A; assay: GCaMP calcium flux assay, BmGr9 I440A; type: cell-based, Bombyx mori
# [17] = molecular target: BmGr9 Q445E (Bombyx mori, UniProt B3GTD7, Q445E); assay: GCaMP calcium flux assay, BmGr9 Q445E; type: cell-based
# Sequence of BmGr9 Q445E (B3GTD7 entry or part of it Q445E): as the sequence (B3GTD7 entry or part of it H358A) above, with A358H, Q445E counted along it
# [18] = molecular target: BmGr9 Q351A (Bombyx mori, UniProt B3GTD7, Q351A); assay: GCaMP calcium flux assay, BmGr9 Q351A; type: cell-based
# Sequence of BmGr9 Q351A (B3GTD7 entry or part of it Q351A): as the sequence (B3GTD7 entry or part of it H358A) above, with Q351A, A358H counted along it
# [19] = test system: BmGr9 Q443N; assay: GCaMP calcium flux assay, BmGr9 Q443N; type: cell-based, Bombyx mori
# [20] = test system: BmGr9 Q351E; assay: GCaMP calcium flux assay, BmGr9 Q351E; type: cell-based, Bombyx mori
# [21] = test system: BmGr9 T330A; assay: GCaMP calcium flux assay, BmGr9 T330A; type: cell-based, Bombyx mori
# [22] = molecular target: BmGr9 Q443E_Q445A (Bombyx mori, UniProt B3GTD7, Q443E/Q445A); assay: GCaMP calcium flux assay, BmGr9 Q443E_Q445A; type: cell-based
# Sequence of BmGr9 Q443E_Q445A (B3GTD7 entry or part of it Q443E/Q445A): as the sequence (B3GTD7 entry or part of it H358A) above, with A358H, Q443E, Q445A counted along it
# [23] = test system: BmGr9 D99A; assay: GCaMP calcium flux assay, BmGr9 D99A; type: cell-based, Bombyx mori
# [24] = test system: BmGr9 F189A; assay: GCaMP calcium flux assay, BmGr9 F189A; type: cell-based, Bombyx mori
# [25] = molecular target: BmGr9 Q443E_Q445K (Bombyx mori, UniProt B3GTD7, Q443E/Q445K); assay: GCaMP calcium flux assay, BmGr9 Q443E_Q445K; type: cell-based
# Sequence of BmGr9 Q443E_Q445K (B3GTD7 entry or part of it Q443E/Q445K): as the sequence (B3GTD7 entry or part of it H358A) above, with A358H, Q443E, Q445K counted along it
# [26] = test system: BmGr9 W193F; assay: GCaMP calcium flux assay, BmGr9 W193F; type: cell-based, Bombyx mori
# [27] = molecular target: BmGr9 F189Y (Bombyx mori, UniProt B3GTD7, F189Y); assay: GCaMP calcium flux assay, BmGr9 F189Y; type: cell-based
# Sequence of BmGr9 F189Y (B3GTD7 entry or part of it F189Y): as the sequence (B3GTD7 entry or part of it H358A) above, with F189Y, A358H counted along it
# [28] = test system: BmGr9 H358Q; assay: GCaMP calcium flux assay, BmGr9 H358Q; type: cell-based, Bombyx mori
# [29] = molecular target: BmGr9 Q443E_Q445R (Bombyx mori, UniProt B3GTD7, Q443E/Q445R); assay: GCaMP calcium flux assay, BmGr9 Q443E_Q445R; type: cell-based
# Sequence of BmGr9 Q443E_Q445R (B3GTD7 entry or part of it Q443E/Q445R): as the sequence (B3GTD7 entry or part of it H358A) above, with A358H, Q443E, Q445R counted along it
# [30] = test system: BmGr9 D99N; assay: GCaMP calcium flux assay, BmGr9 D99N; type: cell-based, Bombyx mori
# [31] = test system: BmGr9 W354F; assay: GCaMP calcium flux assay, BmGr9 W354F; type: cell-based, Bombyx mori
# [32] = molecular target: T1, BmGr9; assay: Intrinsic tryptophan fluorescence of detergent-solubilized purified BmGr9; type: binding
# [33] = molecular target: BmGr9 T330S (Bombyx mori, UniProt B3GTD7, T330S); assay: GCaMP calcium flux assay, BmGr9 T330S; type: cell-based
# Sequence of BmGr9 T330S (B3GTD7 entry or part of it T330S): as the sequence (B3GTD7 entry or part of it H358A) above, with T330S, A358H counted along it
# [34] = molecular target: BmGr9 P331A (Bombyx mori, UniProt B3GTD7, P331A); assay: GCaMP calcium flux assay, BmGr9 P331A; type: cell-based
# Sequence of BmGr9 P331A (B3GTD7 entry or part of it P331A): as the sequence (B3GTD7 entry or part of it H358A) above, with P331A, A358H counted along it
# [35] = molecular target: BmGr9 Q445A (Bombyx mori, UniProt B3GTD7, Q445A); assay: GCaMP calcium flux assay, BmGr9 Q445A; type: cell-based
# Sequence of BmGr9 Q445A (B3GTD7 entry or part of it Q445A): as the sequence (B3GTD7 entry or part of it H358A) above, with A358H, Q445A counted along it
# [36] = test system: BmGr9 Y332L; assay: GCaMP calcium flux assay, BmGr9 Y332L; type: cell-based, Bombyx mori
# [37] = molecular target: BmGr9 Y190F (Bombyx mori, UniProt B3GTD7, Y190F); assay: GCaMP calcium flux assay, BmGr9 Y190F; type: cell-based; conditions: 95% CI in parentheses
# Sequence of BmGr9 Y190F (B3GTD7 entry or part of it Y190F): as the sequence (B3GTD7 entry or part of it H358A) above, with Y190F, A358H counted along it
# [38] = test system: BmGr9 F444A; assay: GCaMP calcium flux assay, BmGr9 F444A; type: cell-based, Bombyx mori
# [39] = molecular target: BmGr9 Q445N (Bombyx mori, UniProt B3GTD7, Q445N); assay: GCaMP calcium flux assay, BmGr9 Q445N; type: cell-based
# Sequence of BmGr9 Q445N (B3GTD7 entry or part of it Q445N): as the sequence (B3GTD7 entry or part of it H358A) above, with A358H, Q445N counted along it
# [40] = molecular target: BmGr9 R86K (Bombyx mori, UniProt B3GTD7, R86K); assay: GCaMP calcium flux assay, BmGr9 R86K; type: cell-based
# Sequence of BmGr9 R86K (B3GTD7 entry or part of it R86K): as the sequence (B3GTD7 entry or part of it H358A) above, with R86K, A358H counted along it
# [41] = test system: BmGr9 Y332Q; assay: GCaMP calcium flux assay, BmGr9 Y332Q; type: cell-based, Bombyx mori
# [42] = test system: BmGr9 D165N; assay: GCaMP calcium flux assay, BmGr9 D165N; type: cell-based, Bombyx mori
# [43] = test system: BmGr9 F333Y; assay: GCaMP calcium flux assay, BmGr9 F333Y; type: cell-based, Bombyx mori
# [44] = molecular target: BmGr9 Q443D_Q445R (Bombyx mori, UniProt B3GTD7, Q443D/Q445R); assay: GCaMP calcium flux assay, BmGr9 Q443D_Q445R; type: cell-based; conditions: 95% CI in parentheses
# Sequence of BmGr9 Q443D_Q445R (B3GTD7 entry or part of it Q443D/Q445R): as the sequence (B3GTD7 entry or part of it H358A) above, with A358H, Q443D, Q445R counted along it
# [45] = molecular target: BmGr9 Q443D (Bombyx mori, UniProt B3GTD7, Q443D); assay: GCaMP calcium flux assay, BmGr9 Q443D; type: cell-based
# Sequence of BmGr9 Q443D (B3GTD7 entry or part of it Q443D): as the sequence (B3GTD7 entry or part of it H358A) above, with A358H, Q443D counted along it
# [46] = molecular target: BmGr9 T330V (Bombyx mori, UniProt B3GTD7, T330V); assay: GCaMP calcium flux assay, BmGr9 T330V; type: cell-based
# Sequence of BmGr9 T330V (B3GTD7 entry or part of it T330V): as the sequence (B3GTD7 entry or part of it H358A) above, with T330V, A358H counted along it
# [47] = molecular target: BmGr9 Q443E (Bombyx mori, UniProt B3GTD7, Q443E); assay: GCaMP calcium flux assay, BmGr9 Q443E; type: cell-based
# Sequence of BmGr9 Q443E (B3GTD7 entry or part of it Q443E): as the sequence (B3GTD7 entry or part of it H358A) above, with A358H, Q443E counted along it
# [48] = test system: HEK293 cells transfected with GCaMP only; assay: Cell-based GCaMP calcium flux assay, GCaMP-only control cells
# Sequence of BmGr9 Y332A (B3GTD7 entry or part of it Y332A): as the sequence (B3GTD7 entry or part of it H358A) above, with Y332A, A358H counted along it
smiles,measurement,setting,value
O=C(CO)[C@@H](O)[C@H](O)[C@H](O)CO [D-fructose],EC50,[1],8.3 mM
same,Hill Slope,"[1]; Y332A, 95% CI in parentheses",0.99 (0.37 to 2.17)
same,Hill Slope,[2],~1.06
same,EC50,[3],~8 mM
same,Hill Slope,[3]; Q351N,~0.71
same,"activation by D-fructose (Fmax, Hill slope, EC50 fit)",[4],no activity
same,"activation by D-fructose (Fmax, Hill slope, EC50 fit)",[5],no activity
same,"activation by D-fructose (Fmax, Hill slope, EC50 fit)",[6],no activity
same,Activation of BmGr9 (change in fluorescence) by sweet compound,"[7]; 100 mM sweet compound, HEK293 cells with BmGr9 plus GCaMP vs GCaMP only",elicited a strong response; also recorded: significantly different activity
same,EC50,"[7]; EC50, WT BmGr9, 95% CI in parentheses",8.71 mM
same,Hill coefficient,"[7]; Fig. 1b dose-response, n = 8, 95% CI in parentheses",2.3 (1.3–4.6)
same,Hill Slope,"[7]; WT BmGr9, 95% CI in parentheses",1.94 (1.48 to 2.58)
same,EC50,"[7]; half-maximal activation concentration (EC50), Fig. 1b dose-response, HEK293 cells with BmGr9 and GCaMP6s, n = 8, 95% CI in parentheses",9 mM and 8.2 mM
same,F max,[8],~0.12
same,activation by D-fructose (printed in Hill Slope column),[8],no activity
same,"activation by D-fructose (Fmax, Hill slope, EC50 fit)",[9],no activity
same,"activation by D-fructose (Fmax, Hill slope, EC50 fit)",[10],no activity
same,EC50,[11],2.6 mM
same,apparent affinity relative to wild-type,[11]; Tyr332 to Phe,slightly increases the apparent affinity
same,Hill Slope,[11]; Y332F,~2.36
same,EC50,[12],~18 mM
same,Hill Slope,"[12]; Q443D_Q445K, 95% CI in parentheses",1.18 (0.24 to 2.87)
same,"activation by D-fructose (Fmax, Hill slope, EC50 fit)",[13],no activity
same,"activation by D-fructose (Fmax, Hill slope, EC50 fit)",[14],no activity
same,"activation by D-fructose (Fmax, Hill slope, EC50 fit)",[15],no activity
same,"activation by D-fructose (Fmax, Hill slope, EC50 fit)",[16],no activity
same,EC50,[17],15.3 mM
same,Hill Slope,"[17]; Q445E, 95% CI in parentheses",1.56 (0.68 to 3.75)
same,EC50,[18],3.9 mM
same,Hill Slope,"[18]; Q351A, 95% CI in parentheses",1.89 (0.60 to 5.26)
same,"activation by D-fructose (Fmax, Hill slope, EC50 fit)",[19],no activity
same,"activation by D-fructose (Fmax, Hill slope, EC50 fit)",[20],no activity
same,"activation by D-fructose (Fmax, Hill slope, EC50 fit)",[21],no activity
same,EC50,[22],1.53 mM
same,Hill Slope,"[22]; Q443E_Q445A, 95% CI in parentheses",1.58 (0.69 to 6.42)
same,"activation by D-fructose (Fmax, Hill slope, EC50 fit)",[23],no activity
same,"activation by D-fructose (Fmax, Hill slope, EC50 fit)",[24],no activity
same,EC50,[25],5.1 mM
same,Hill Slope,"[25]; Q443E_Q445K, 95% CI in parentheses",2.28 (1.51 to 3.62)
same,"activation by D-fructose (Fmax, Hill slope, EC50 fit)",[26],no activity
same,EC50,[27],~0.1 mM
same,Hill Slope,"[27]; F189Y, 95% CI in parentheses",1.05 (0.44 to 2.15)
same,F max,[28],~0.14
same,Hill Slope,[28],~1.43
same,EC50,[29],4.07 mM
same,Hill Slope,"[29]; Q443E_Q445R, 95% CI in parentheses",2.02 (1.27 to 3.33)
same,"activation by D-fructose (Fmax, Hill slope, EC50 fit)",[30],no activity
same,"activation by D-fructose (Fmax, Hill slope, EC50 fit)",[31],no activity
same,Kd,"[32]; KD (apparent affinity, tryptophan fluorescence), purified BmGr9 in digitonin, n = 4, 95% CI in parentheses",16 mM and 15.8 mM
same,Trp fluorescence emission maximum,"[32]; saturating D-fructose, maximum near 330 nm without sugar",324 nm
same,EC50,[33],~100 mM
same,Hill Slope,[33]; T330S,~3.03
same,EC50,[34],5.5 mM
same,Hill Slope,"[34]; P331A, 95% CI in parentheses",1.43 (0.87 to 2.39)
same,EC50,[35],2.01 mM
same,Hill Slope,[35]; Q445A,~3.78
same,Fluorescence change relative to wild-type BmGr9,"[35]; Q445A, 100 mM D-fructose",more active than wild-type BmGr9
same,"activation by D-fructose (Fmax, Hill slope, EC50 fit)",[36],no activity
same,Hill Slope,[37],0.98 (0.56 to 2.07)
same,"activation by D-fructose (Fmax, Hill slope, EC50 fit)",[38],no activity
same,EC50,[39],20.3 mM
same,Hill Slope,"[39]; Q445N, 95% CI in parentheses",1.49 (0.79 to 2.76)
same,EC50,[40],10.4 mM
same,Hill Slope,[40]; R86K,~2.45
same,"activation by D-fructose (Fmax, Hill slope, EC50 fit)",[41],no activity
same,F max,[42],~0.10
same,activation by D-fructose (printed in Hill Slope column),[42],no activity
same,"activation by D-fructose (Fmax, Hill slope, EC50 fit)",[43],no activity
same,Hill Slope,[44],0.31 (0.13 to 1.13)
same,EC50,[45],10 mM
same,Hill Slope,"[45]; Q443D, 95% CI in parentheses",1.52 (0.94 to 2.57)
same,EC50,[46],~98 mM
same,Hill Slope,[46]; T330V,~6.22
same,EC50,[47],1.32 mM
same,apparent affinity relative to wild-type,[47]; Gln443 to Glu,increased apparent affinity
same,Hill Slope,[47]; Q443E,~2.57
same,Fluorescence change relative to wild-type BmGr9,"[47]; Q443E, 100 mM D-fructose",more active than wild-type BmGr9
same,Hill Slope,[48],~2.37
same,F max,[48]; ~ = CI not determined,~0.20
